Data as given in patent US12668600B2 (Kumquat Biosciences Inc., priority 2023, dated 2026).

target: T1, KRAS G12D (Homo sapiens, UniProt P01116, G12D); assay: HTRF KRAS-SOS1 interaction assay, KRAS G12D; assay type: biochemical; conditions: binned ≤2 μM / >2 μM, read-out: Inhibition of KRAS G12D (IC50)
T1 construct: made in house; host or cells: E. coli, e.g. BL21 (DE3)
Excerpt: This assay can be also used to assess a selective inhibition or reduction of signaling output of a mutant Ras protein relative to a wildtype, or relative to a different mutant Ras protein. For example, the equilibrium interaction of wildtype KRAS or K-Ras mutant (e.g., wildtype or a mutant thereof) with SOS1 (e.g., hSOS1) can be assessed as a proxy or an indication for the ability of a subject compound to bind and inhibit Ras protein. The HTRF assay detects from (i) a fluorescence resonance energy transfer (FRET) donor (e.g., antiGST-Europium) that is bound to GST-tagged K-Ras mutant to (ii) a FRET acceptor (e.g., anti-6His-XL665) bound to a His-tagged hSOS1.
The assay buffer can contain ˜5 mM HEPES pH 7.4, ˜150 mM NaCl, ˜1 mM DTT, 0.05% BSA and 0.0025% (v/v) Igepal. A Ras working solution is prepared in an assay buffer containing typically a suitable amount of the protein construct (e.g., GST-tagged K-Ras mutant) and the FRET donor (e.g., antiGST-Eu (K) from Cisbio, France). A SOS1 working solution is prepared in an assay buffer containing suitable amount of the protein construct (e.g., His-hSOS1) and the FRET acceptor (e.g., anti-6His-XL665 from Cisbio, France). A suitable amount of the protein construct will depend on the range of activity or range of IC50 values being detected or under investigation. For detecting an IC50 within a range of 500 nM, the protein constructs of the same range of molarity can be utilized.
A fixed volume of DMSO with or without test compound is transferred into a 384-well plate. Ras working solution is added to all wells of the test plate. SOS1 working solution is added to all wells except for those that are subsequently filled with inhibitor control solution. Upon incubation for about 10 minutes or longer, the fluorescence is measured with a M1000Pro plate reader (Tecan) using HTRF detection (excitation 337 nm, emission 1:620 nm, emission 2:665 nm). Compounds are tested in duplicate at different concentrations (for example, 10 μM, 2.5 μM, 0.63 μM, 0.16 μM, 0.04 μM, 0.01 μM test compound). The ratiometric data (i.e., emission 2 divided by emission 1) is used to calculate IC50 values against Ras using GraphPad Prism (GraphPad software). Signaling output measured in terms of IC50 values can be obtained and a ratio of IC50 against one mutant relative to another mutant can be calculated.

T1 sequence (P01116 1-188 isoform P01116-2 G12D): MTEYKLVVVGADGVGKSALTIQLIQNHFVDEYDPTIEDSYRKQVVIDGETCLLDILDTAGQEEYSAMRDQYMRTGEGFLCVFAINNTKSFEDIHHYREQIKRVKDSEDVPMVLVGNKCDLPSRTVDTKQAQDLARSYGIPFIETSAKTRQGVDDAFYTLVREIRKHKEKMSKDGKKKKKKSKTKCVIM

IC50	SMILES
≤ 2000 nM	N#Cc1c(N)sc2c(F)ccc(-c3c(C(F)(F)F)c4c5c(nc(OC[C@@]67CCCN6C[C@H](F)C7)nc5c3F)N([C@H](CC3CC(F)(F)C3)c3cccnc3N)CCO4)c12 (single isomer, unassigned) [Compound 703]
≤ 2000 nM	N#Cc1c(N)sc2c(F)ccc(-c3c(Cl)c4c5c(nc(OC[C@@]67CCCN6C[C@H](F)C7)nc5c3F)N(C(CC(F)F)c3cccnc3N)CCO4)c12 (mixture of isomers) [Compound 776, 2-amino-4-(4-(1-(2-aminopyridin-3-yl)-3,3-difluoropropyl)-8-chloro-10-fluoro-2-(((2R,7aS)-2-fluorotetrahydro-1H-pyrrolizin-7a(5H)-yl)methoxy)-5,6-dihydro-4H-[1,4]oxazepino[5,6,7-de]quinazolin-9-yl)-7-fluorobenzo[b]thiophene-3-carbonitrile]
≤ 2000 nM	CP(C)(=O)CC[C@H](c1cccnc1N)N1CCOc2c(C(F)(F)F)c(-c3ccc(F)c4sc(N)c(C#N)c34)c(F)c3nc(OC[C@@]45CCCN4C[C@H](F)C5)nc1c23 (single isomer, unassigned) [Compound 891]
≤ 2000 nM	CC(c1cccnc1N)N1CCOc2c(Cl)c(-c3ccc(F)c4sc(N)c(C#N)c34)c(F)c3nc(OC[C@@]45CCCN4C[C@H](F)C5)nc1c23 (single isomer, unassigned) [Compound 820]
≤ 2000 nM	N#Cc1c(N)sc2c(F)ccc(-c3c(C(F)(F)F)c4c5c(nc(OC[C@@]67CCCN6C[C@H](F)C7)nc5c3F)N([C@H](CC3CCOCC3)c3cccnc3N)CCO4)c12 (single isomer, unassigned) [Compound 824]
≤ 2000 nM	N#Cc1c(N)sc2c(F)ccc(-c3c(Cl)c4c5c(nc(OC[C@@]67CCCN6C[C@H](F)C7)nc5c3F)N(C(C=C(F)F)c3cccnc3N)CCO4)c12 (single isomer, unassigned) [Compound 712]
≤ 2000 nM	CC(c1cncnc1N)N1CCOc2c(Cl)c(-c3ccc(F)c4sc(N)c(C#N)c34)c(F)c3nc(OC[C@@]45CCCN4C[C@H](F)C5)nc1c23 (single isomer, unassigned) [Compound 699]
≤ 2000 nM	N#Cc1c(N)sc2c(F)ccc(-c3c(Cl)c4c5c(nc(OC[C@@]67CCCN6C[C@H](F)C7)nc5c3F)N(C(/C=C\C(F)(F)F)c3cccnc3N)CCO4)c12 (single isomer, unassigned) [Compound 872]
≤ 2000 nM	CN(C)CC[C@H](c1cccnc1N)N1CCOc2c(C(F)(F)F)c(-c3ccc(F)c4sc(N)c(C#N)c34)c(F)c3nc(OC[C@@]45CCCN4C[C@H](F)C5)nc1c23 (single isomer, unassigned) [Compound 758]
≤ 2000 nM	N#Cc1c(N)sc2c(F)ccc(-c3c(Cl)c4c5c(nc(OC[C@@]67CCCN6C[C@H](F)C7)nc5c3F)N(C(c3cccnc3N)C(F)F)CCO4)c12 (single isomer, unassigned) [Compound 786]
≤ 2000 nM	N#Cc1c(N)sc2c(F)ccc(-c3c(C(F)(F)F)c4c5c(nc(OC[C@@]67CCCN6C[C@H](F)C7)nc5c3F)N([C@@H](c3cccnc3N)C(F)F)CCO4)c12 (single isomer, unassigned) [Compound 804]
≤ 2000 nM	C=Cc1c(-c2ccc(F)c3sc(N)c(C#N)c23)c(F)c2nc(OC[C@@]34CCCN3C[C@H](F)C4)nc3c2c1OCCN3[C@H](C)c1cccnc1N (single isomer, unassigned) [Compound 787]
≤ 2000 nM	CS(=O)(=O)CCC[C@H](c1cccnc1N)N1CCOc2c(C(F)(F)F)c(-c3ccc(F)c4sc(N)c(C#N)c34)c(F)c3nc(OC[C@@]45CCCN4C[C@H](F)C5)nc1c23 (single isomer, unassigned) [Compound 805]

Further lines, the compound ahead of its results:

SMILES	IC50
C[C@H](c1cccnc1N)N1CCOc2c(Cl)c(-c3ccc(F)c4sc(N)c(C#N)c34)c(F)c3nc(OCC45CCCN4C[C@H](OCCCP(C)(C)=O)C5)nc1c23 (single isomer, unassigned) [Compound 857]	≤ 2000 nM
CO/N=C1\CN2CCC[C@@]2(COc2nc3c4c(c(Cl)c(-c5ccc(F)c6sc(N)c(C#N)c56)c(F)c4n2)OCCN3[C@H](C)c2cccnc2N)C1 (single isomer, unassigned) [Compound 898]	≤ 2000 nM
N#Cc1c(N)sc2c(F)ccc(-c3c(C(F)(F)F)c4c5c(nc(OC[C@@]67CCCN6C[C@H](F)C7)nc5c3F)N([C@H](CCC3CC(F)(F)C3)c3cccnc3N)CCO4)c12 (single isomer, unassigned) [Compound 724]	≤ 2000 nM
C#C[C@H]1COc2c(Cl)c(-c3ccc(F)c4sc(N)c(C#N)c34)c(F)c3nc(OC[C@@]45CCCN4C[C@H](F)C5)nc(c23)N1C(C)c1cccnc1N (single isomer, unassigned) [Compound 729]	≤ 2000 nM
N#Cc1c(N)sc2c(F)ccc(-c3c(C(F)(F)F)c4c5c(nc(OC[C@@]67CCCN6C[C@H](F)C7)nc5c3F)N([C@H](CCC3COCCO3)c3cccnc3N)CCO4)c12 (single isomer, unassigned) [Compound 701]	≤ 2000 nM
C[C@H](c1ccc(F)nc1N)N1CCOc2c(C(F)(F)F)c(-c3ccc(F)c4sc(N)c(C#N)c34)c(F)c3nc(OC[C@@]45CCCN4C[C@H](F)C5)nc1c23 (single isomer, unassigned) [Compound 726]	≤ 2000 nM
C[C@H](c1cccnc1N)N1CCOc2c(Cl)c(-c3ccc(F)c4sc(N)c(C#N)c34)c(F)c3nc(OCC4(CN(C)C)CC4)nc1c23 (single isomer, unassigned) [Compound 771]	≤ 2000 nM
C[C@H]1CN([C@@H](c2cccnc2N)C(F)F)c2nc(OC[C@@]34CCCN3C[C@H](F)C4)nc3c(F)c(-c4ccc(F)c5sc(N)c(C#N)c45)c(C(F)(F)F)c(c23)O1 (single isomer, unassigned) [Compound 889]	≤ 2000 nM
N#Cc1c(N)sc2c(F)ccc(-c3c(C(F)(F)F)c4c5c(nc(OC[C@@]67CCCN6C[C@H](F)C7)nc5c3F)N([C@H](CCN3CCOCC3)c3cccnc3N)CCO4)c12 (single isomer, unassigned) [Compound 735]	≤ 2000 nM
C[C@H](c1cccnc1N)N1CCOc2c(Cl)c(-c3cccc4sc(N)c(C#N)c34)c(F)c3nc(OC[C@@]45CCCN4C[C@H](F)C5)nc1c23 (single isomer, unassigned) [Compound 823]	≤ 2000 nM
C[C@H](c1cccnc1N)N1CCOc2c(Cl)c(-c3cccc4sc(N)c(C#N)c34)c(F)c3nc(OC[C@@]45CCCN4CC(=C(F)F)C5)nc1c23 (single isomer, unassigned) [Compound 688]	≤ 2000 nM
CC(c1cccnc1N)N1c2nc(OC[C@@]34CCCN3C[C@H](F)C4)nc3c(F)c(-c4ccc(F)c5sc(N)c(C#N)c45)c(Cl)c(c23)OC[C@@H]1CC#N (mixture of isomers) [Compound 716, 2-amino-4-((5S)-4-(1-(2-aminopyridin-3-yl)ethyl)-8-chloro-5-(cyanomethyl)-10-fluoro-2-(((2R,7aS)-2-fluorotetrahydro-1H-pyrrolizin-7a(5H)-yl)methoxy)-5,6-dihydro-4H-[1,4]oxazepino[5,6,7-de]quinazolin-9-yl)-7-fluorobenzo[b]thiophene-3-carbonitrile]	≤ 2000 nM
C[C@H](c1cccnc1N)N1CCOc2c(C(F)(F)F)c(-c3ccc(F)c4sc(N)c(C#N)c34)c(F)c3nc(OC[C@@]45CCCN4CC(C#N)C5)nc1c23 (single isomer, unassigned) [Compound 754]	≤ 2000 nM
N#Cc1c(N)sc2c(F)ccc(-c3c(C(F)(F)F)c4c5c(nc(OC[C@@]67CCCN6C[C@H](F)C7)nc5c3F)N([C@H](CCC3CCOCC3)c3cccnc3N)CCO4)c12 (single isomer, unassigned) [Compound 696]	≤ 2000 nM
C[C@@H]1CN(CC2(COc3nc4c5c(c(C(F)(F)F)c(-c6ccc(F)c7sc(N)c(C#N)c67)c(F)c5n3)OCCN4[C@H](C)c3cccnc3N)CC2)C[C@H](C)O1 [Compound 886, 2-amino-4-(4-((R)-1-(2-aminopyridin-3-yl)ethyl)-2-((1-(((2S,6R)-2,6-dimethylmorpholino)methyl)cyclopropyl)methoxy)-10-fluoro-8-(trifluoromethyl)-5,6-dihydro-4H-[1,4]oxazepino[5,6,7-de]quinazolin-9-yl)-7-fluorobenzo[b]thiophene-3-carbonitrile]	≤ 2000 nM
CCO/N=C1\CN2CCC[C@@]2(COc2nc3c4c(c(Cl)c(-c5ccc(F)c6sc(N)c(C#N)c56)c(F)c4n2)OCCN3[C@H](C)c2cccnc2N)C1 (single isomer, unassigned) [Compound 865]	≤ 2000 nM
